Consider one substance from patent publication US7078389B2, “Chemically modified oligonucleotide for site-directed mutagenesis” (priority 1993, dated 2006).

In data set [1] the test system is supF gene within the pSP189 SV40 vector. Briefly: Sequence analysis and colony hybridization of supF mutants from SV40 vector. The arrangement: species or system monkey. The method, then:
Colony hybridization. Ampicillin resistant colonies of SY204 carrying shuttle vector plasmids with supF gene mutations, along with appropriate control colonies, were grown on LB/ampicillin plates and transferred onto replica nylon filters for additional growth and in situ lysis to allow colony hybridization by standard methods. The DNA was fixed to the filters by UV crosslinking, and the filters were incubated in 6×SSC, 5×Denhardt's solution, 0.5% SDS, and 5×10^5 cpm/ml of ^32P-labeled oligonucleotides at 42° C. for 18 hours. The filters were washed in 1×SSC and 0.1% SDS for 30 minutes at 25° C. and then in 1×SSC and 0.1% SDS at 42° C. for 2 hours. […] Binding of the oligonucleotide probes was determined by autoradiography.
DNA Sequencing. DNA was prepared for sequencing by isolating DNA from a 3 ml bacterial culture using a Promega Magic Miniprep kit (Promega, Madison, Wis.). DNA sequence data was obtained by direct chain termination sequencing of the plasmid DNA using automated methods.
Sequence analysis of targeted mutations. A set of 20 mutants generated in the supF gene in the SV40 vector by psoralen-AG10 (at the 1000:1 ratio) and UVA light were subjected to DNA sequence analysis.
In the analysis of mutagenesis in SV40 vectors, it is often difficult to determine if identical mutations arose independently or if they were the result of a single mutational event amplified by subsequent vector replication. In order to exclude the possibility that such sibling mutations were isolated in these experiments, use was made of an advantageous feature of the pSP189 system, in which over 100,000 different, random-sequence 8 base pair oligonucleotides were cloned into a region of pSP189 next to the supF gene. The vector DNA is prepared en masse from this library of vector clones containing the different 8 bp sequences. In this way, at the same time that the sequence of the supF gene in a mutant vector is ascertained, the 8 base pair signature sequence in that particular plasmid molecule can also be identified by reading a few extra bases further in the sequence data. This enables comparisons between the 8 bp signature sequences in plasmids bearing the same supF mutation to see if they are siblings from the same mutational event or if they are independent mutations.
Instead of direct sequencing, a technique of differential oligonucleotide hybridizations was used (Sidransky et al., Science 252:706–709 (1991)). In this assay, undertaken in an effort to streamline mutant analysis, ampicillin resistant bacterial colonies containing mutant supF genes were grown on nylon filters to allow nucleic acid hybridizations.

Data set [2] has as its system supF gene contained within the chromosomes of the LN12 cells. Put plainly: Targeted mutagenesis in mouse fibroblast LN12 cells. It is filed as cell-based. An excerpt: For the purposes of achieving targeted mutagenesis in mouse cells in vivo, the assay system to detect mutations in the chromosomes of mouse fibroblasts in culture developed by Glazer et al. was used (Proc. Natl. Acad. Sci. USA 83:1041–1044, (1986), which is incorporated by reference herein). This system allows detection and analysis of mutations occurring in the supF gene contained within the chromosomes of the LN12 cells, a derivative of mouse L cells into whose chromosomes multiple copies of the lambda supF shuttle vector were inserted.
The LN12 cells, growing in culture, were treated with the oligonucleotide, psoralen-AG10, which is designed to target mutations to base pair 167 in the supF gene via sequence-specific triplex formation and thereby delivery of the psoralen to that site. This oligonucleotide was used also in the lambda and the SV40 experiments. The oligonucleotide was added directly to the growth medium of the cells at various concentrations in the range of 0.1 to 50 μM. Two hours later, the cells were exposed to 0.07 J/cm^2 of UVA irradiation, the cells were allowed to grow for an additional 2 to 4 days, and then DNA was prepared from the cells to analyze for mutations in the supF gene. Using lambda in vitro packaging extracts to rescue the supF gene in the lambda vector from within the mouse DNA (as described by Glazer et al., cited above), mutations were detected in approximately 0.05% of the supF genes. Over forty mutant supF genes have been isolated in these recent experiments (from all concentrations of oligonucleotide studied), but the sequence of only one has been determined so far.

Take “4′-hydroxymethyl-4,5′,8-trimethylpsoralen-^5′AGGAAGGGGG^3′ (DNA NAGGAAGGGGG; 4'-hydroxymethyl-4,5',8-trimethylpsoralen conjugated at 5' end, further chemistry not given here) [pso-AG10]”: the “Share of sequenced mutations with the same base change at the targeted base pair” value in data set [1] (20 mutants, 1000:1 ratio, UVA, DNA sequencing) amounted to 55%. In data set [1] (42 mutants, colony hybridization), the “Share of mutants carrying the T:A to A:T mutation at bp 167” value was found to be 52%. For the same substance, in data set [1] (1000:1 ratio, UVA), the “Share of all viral genomes with intended base change (T:A to A:T at bp 167)” value is listed as “over 4%”. Also, the “Number of colonies with hybridization specific to the 167 mutant probe” value in data set [1] (of 19 colonies assayed, colony hybridization) is listed as 9. Moreover, the “Number of sequenced mutations with T:A to A:T transversion at base pair 167” value in data set [1] (of 20 mutants, 1000:1 ratio, UVA, DNA sequencing) amounted to 11. In addition, in data set [1] (of 20 sequenced mutants), the “Number of point mutations at base pairs adjacent to the targeted base pair” value is 3 and the “Number of small deletions including or abutting the targeted base pair” value was 6. Further, the “Number of mutants carrying the T:A to A:T mutation at bp 167” value in data set [1] (of 42 mutants, colony hybridization (including 20 sequenced)) was found to be 22. The “Share of mutations that are the same T:A to A:T transversion, data taken together” value in data set [1] (sequencing and hybridization together) is given as “at least 50%”. Also, the “Share of supF genes with mutations” value in data set [2] (0.1 to 50 μM in growth medium, 2 hours, UVA 0.07 J/cm^2, 2 to 4 days growth) is “approximately 0.05%”. Moreover, in data set [2] (0.1 to 50 μM, FIG. 6), the “Relation of supF mutation frequency to oligonucleotide concentration” value was “dose-response relationship”. Besides, the “Sequence of the one supF mutant determined” value in data set [2] (LN12 cells) is listed as “T:A to A:T transversion exactly at the targeted base pair”.
